According to publication PMC9942120 (iScience, 2023):

How the values were obtained:
Type in all cases: cell-based
PCBP1 = PCBP1 (Homo sapiens, UniProt Q15365); experiment: direct LC-MS/MS profiling of modified tryptic peptides; conditions: covalent at Cys194; H358 cells, […] AMG510, […] h (methods print […] h)
PLOD3 = target: T1, PLOD3 (Homo sapiens, UniProt O60568); experiment: as above; conditions: covalent at Cys691; H358 cells, […] AMG510, […] h (methods print […] h)
T1 sequence (O60568 25-738): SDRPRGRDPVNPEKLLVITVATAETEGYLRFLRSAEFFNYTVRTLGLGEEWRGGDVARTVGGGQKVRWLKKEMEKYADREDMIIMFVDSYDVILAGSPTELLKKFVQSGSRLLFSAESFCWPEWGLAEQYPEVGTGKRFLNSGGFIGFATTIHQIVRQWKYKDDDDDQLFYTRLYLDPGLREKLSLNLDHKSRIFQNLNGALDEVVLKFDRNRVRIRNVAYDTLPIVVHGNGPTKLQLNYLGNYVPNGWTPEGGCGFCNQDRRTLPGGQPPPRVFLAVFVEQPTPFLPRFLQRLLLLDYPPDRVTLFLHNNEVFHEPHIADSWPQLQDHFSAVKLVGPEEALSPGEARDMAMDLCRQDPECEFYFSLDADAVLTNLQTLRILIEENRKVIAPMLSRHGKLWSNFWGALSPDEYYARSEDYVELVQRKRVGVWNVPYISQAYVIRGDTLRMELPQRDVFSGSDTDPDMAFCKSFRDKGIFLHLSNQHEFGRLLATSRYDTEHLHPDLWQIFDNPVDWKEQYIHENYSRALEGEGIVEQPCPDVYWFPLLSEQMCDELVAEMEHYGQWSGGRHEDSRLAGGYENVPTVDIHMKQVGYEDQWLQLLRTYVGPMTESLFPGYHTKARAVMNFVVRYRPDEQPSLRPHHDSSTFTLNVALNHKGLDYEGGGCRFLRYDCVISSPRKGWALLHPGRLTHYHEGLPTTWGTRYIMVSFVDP

RAE1 = target: T2, RAE1 (Homo sapiens, UniProt P78406); experiment: as above; conditions: covalent at Cys106; H358 cells, […] AMG510, […] h (methods print […] h)
T2 sequence (P78406 1-368): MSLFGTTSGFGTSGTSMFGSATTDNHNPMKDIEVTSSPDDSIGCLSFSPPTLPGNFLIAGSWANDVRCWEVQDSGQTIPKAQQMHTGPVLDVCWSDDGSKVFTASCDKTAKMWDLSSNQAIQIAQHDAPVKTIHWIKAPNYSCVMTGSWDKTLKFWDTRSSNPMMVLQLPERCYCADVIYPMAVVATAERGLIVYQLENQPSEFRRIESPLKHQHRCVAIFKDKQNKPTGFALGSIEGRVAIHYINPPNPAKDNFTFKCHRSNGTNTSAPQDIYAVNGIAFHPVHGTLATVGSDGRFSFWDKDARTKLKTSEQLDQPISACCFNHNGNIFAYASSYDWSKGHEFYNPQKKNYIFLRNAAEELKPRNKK

HSPD1 = HSPD1 (Homo sapiens, UniProt P10809); experiment: as above; conditions: covalent at Cys237; H358 cells, […] AMG510, […] h (methods print […] h)
RPE = RPE (Homo sapiens, UniProt Q96AT9); experiment: as above; conditions: covalent at Cys5; H358 cells, […] AMG510, […] h (methods print […] h)
TK1 = target: T3, TK1 (Homo sapiens, UniProt P04183); experiment: as above; conditions: covalent at Cys3; H358 cells, […] AMG510, […] h (methods print […] h)
T3 sequence (P04183 2-234): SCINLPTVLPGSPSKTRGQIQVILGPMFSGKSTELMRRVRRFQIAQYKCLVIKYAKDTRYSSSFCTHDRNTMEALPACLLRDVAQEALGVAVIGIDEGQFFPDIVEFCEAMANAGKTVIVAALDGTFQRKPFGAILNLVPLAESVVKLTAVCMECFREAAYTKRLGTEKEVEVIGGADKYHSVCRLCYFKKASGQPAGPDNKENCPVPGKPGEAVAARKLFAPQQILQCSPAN

ALDOA = target: T4, ALDOA (Homo sapiens, UniProt P04075); experiment: colorimetric aldolase activity kit; conditions: covalent; […] AMG510 or vehicle, […] min
T4 sequence (P04075 2-364): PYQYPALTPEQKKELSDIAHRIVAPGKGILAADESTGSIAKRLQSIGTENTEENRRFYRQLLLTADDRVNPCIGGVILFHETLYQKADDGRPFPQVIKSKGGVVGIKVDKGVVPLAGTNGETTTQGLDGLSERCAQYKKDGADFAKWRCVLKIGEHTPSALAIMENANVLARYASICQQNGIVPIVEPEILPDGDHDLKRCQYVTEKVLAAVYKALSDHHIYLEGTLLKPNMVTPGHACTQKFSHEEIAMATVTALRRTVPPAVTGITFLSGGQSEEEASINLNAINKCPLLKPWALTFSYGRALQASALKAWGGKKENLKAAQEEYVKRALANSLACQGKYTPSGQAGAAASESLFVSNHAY

Chain of RPE (Q96AT9 2-228): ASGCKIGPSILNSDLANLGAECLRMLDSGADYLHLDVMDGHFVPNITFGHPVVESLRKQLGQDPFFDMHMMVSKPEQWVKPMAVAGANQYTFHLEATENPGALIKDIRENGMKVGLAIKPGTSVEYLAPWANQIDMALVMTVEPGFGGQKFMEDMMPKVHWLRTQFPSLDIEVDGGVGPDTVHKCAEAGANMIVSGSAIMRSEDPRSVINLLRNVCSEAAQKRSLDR
Chain of HSPD1 (P10809 27-573): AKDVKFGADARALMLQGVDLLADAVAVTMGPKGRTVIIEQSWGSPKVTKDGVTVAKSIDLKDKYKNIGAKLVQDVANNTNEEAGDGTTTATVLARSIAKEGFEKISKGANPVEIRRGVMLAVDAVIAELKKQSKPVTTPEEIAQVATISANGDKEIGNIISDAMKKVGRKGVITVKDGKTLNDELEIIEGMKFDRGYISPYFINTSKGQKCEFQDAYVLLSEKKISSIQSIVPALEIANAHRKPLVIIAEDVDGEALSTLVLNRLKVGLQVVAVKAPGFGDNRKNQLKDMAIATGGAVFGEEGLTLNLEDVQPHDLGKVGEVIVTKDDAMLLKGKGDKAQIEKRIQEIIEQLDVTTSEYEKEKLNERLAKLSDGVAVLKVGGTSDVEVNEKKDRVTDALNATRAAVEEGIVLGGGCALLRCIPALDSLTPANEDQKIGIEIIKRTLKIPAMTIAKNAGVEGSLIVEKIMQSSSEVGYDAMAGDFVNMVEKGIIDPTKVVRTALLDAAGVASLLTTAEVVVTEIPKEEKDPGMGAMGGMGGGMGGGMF
Chain of PCBP1 (Q15365 whole entry): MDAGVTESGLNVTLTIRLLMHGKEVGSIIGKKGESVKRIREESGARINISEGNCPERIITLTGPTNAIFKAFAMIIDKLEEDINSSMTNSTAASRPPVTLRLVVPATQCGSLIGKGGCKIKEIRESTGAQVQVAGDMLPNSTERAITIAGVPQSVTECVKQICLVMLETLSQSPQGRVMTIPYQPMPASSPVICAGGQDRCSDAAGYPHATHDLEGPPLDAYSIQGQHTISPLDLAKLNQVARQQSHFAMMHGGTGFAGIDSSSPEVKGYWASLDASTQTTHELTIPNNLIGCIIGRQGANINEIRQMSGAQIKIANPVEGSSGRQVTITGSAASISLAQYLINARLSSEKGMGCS

**Q.** What does the source list for C=CC(=O)N1CCN(c2nc(=O)n(-c3c(C)ccnc3C(C)C)c3nc(-c4c(O)cccc4F)c(F)cc23)[C@@H](C)C1 [AMG510]?
**A.** direct LC-MS/MS profiling of modified tryptic peptides (PCBP1): tumor suppressor (PCBP1 C194); direct LC-MS/MS profiling of modified tryptic peptides (PLOD3): They included enzymes (PLOD3 C691, RPE C5, SPTLC2 C99, UBE2O C370, and TK1 C3); direct LC-MS/MS profiling of modified tryptic peptides (RAE1): transporters (RAE1 C106, S100A16C4, VDAC2 C91 and C225); direct LC-MS/MS profiling of modified tryptic peptides (HSPD1): protein folding accessory protein (HSPD1 C237); direct LC-MS/MS profiling of modified tryptic peptides (RPE): They included enzymes (PLOD3 C691, RPE C5, SPTLC2 C99, UBE2O C370, and TK1 C3); direct LC-MS/MS profiling of modified tryptic peptides (TK1): They included enzymes (PLOD3 C691, RPE C5, SPTLC2 C99, UBE2O C370, and TK1 C3); aldolase activity (ALDOA): The ALDOA enzyme activity assay showed that the activity was indeed inhibited by the AMG510
